Assay results reported in patent US9254288B2, “Susceptibility of tumors to tyrosine kinase inhibitors and treatment thereof” (THE TRANSLATIONAL GENOMICS RESEARCH INSTITUTE, priority 2012, dated 2016).

Key:
BaF3/FGFR2b N550K = test: BaF3 cell viability (ViaLight), FGFR2b N550K; type: cell-based, murine; conditions: for activity against or resistance of N550K, cell viability: BaF3 N550K
BaF3 FGFR2 K660E = test: BaF3 cell viability, FGFR2 K660E
Method: (§1) pEF1a.FGFR2b.IRES.neo or the various FGFR2b mutant plasmids were introduced into BaF3 cells using the Amaxa nucleofector kit V, according to the manufacturer's instructions (Amaxa, Walkersville, Md.). Cells were selected in growth media containing 1200 μg/ml G418 and 5 ng/ml IL3 for 14 days and frozen down.
(§2) After 72 hours, cell viability was measured using the ViaLight kit (Lonza, Walkersville, Md.). Values were normalized to DMSO vehicle control wells and IC50 values generated by nonlinear regression analysis with variable slope using Prism software version 4.0c (GraphPad Software, San Diego, Calif.). […] Following 72 hours of drug treatment, cell viability was assessed using the CyQUANT Cell Proliferation Assay Kit (Life Technologies, Carlsbad, Calif.). Values were normalized to DMSO vehicle control wells and IC50 values calculated as described above. Proliferation assays were performed in triplicate on two independent days and the results averaged.

[1] = test system: stable BaF3-FGFR2 cells, dovitinib-resistant FGFR2 mutants; test: BaF3 cell viability, panel of dovitinib-resistant FGFR2 mutations; conditions: FGF10-induced proliferation
Method: as §1, §2

BaF3/FGFR2b wildtype = test: BaF3 cell viability (ViaLight), wild-type FGFR2b; type: cell-based, murine; conditions: Mus musculus, BaF3, 72 h, read-out: IC50 value in BaF3/FGFR2b wildtype
BaF3 FGFR2 V565I = test: BaF3 cell viability, FGFR2b V565I gatekeeper mutant; type: cell-based, murine
[2] = test system: BaF3 cells expressing the E719G mutant FGFR2; test: BaF3 cell viability, FGFR2b E719G; type: cell-based, murine; conditions: E719G alone vs wild-type FGFR2
EI = test: Endometrial cancer cell viability, EI; type: cell-based; conditions: 72 h
EJ = test: Endometrial cancer cell viability, EJ; type: cell-based; conditions: Homo sapiens, 72 h
EN1078D = test: Endometrial cancer cell viability, EN1078D; type: cell-based; conditions: 72 h
[3] = test system: JHUEM-2 cells expressing FGFR2N550K; test: JHUEM-2 cells stably expressing FGFR2N550K, cell viability; type: cell-based; conditions: JHUEM-2 FGFR2N550K vs control lines (FIG. 8A)
AN3CA = conditions: cited from earlier work
MFE296 = conditions: MFE296, carries N550K FGFR2 mutation; cited from earlier work
MFE280 = conditions: MFE280, FGFR-mutant EC line; cited from earlier work
[4] = test system: endometrial cancer cell lines; test: Endometrial cancer cell line panel viability (CyQUANT); conditions: FGFR2 mutant and wild-type endometrial cancer lines, 72 hours
Method: as §2

CCN1CCN(c2ccc(Nc3cc(N(C)C(=O)Nc4c(Cl)c(OC)cc(OC)c4Cl)ncn3)cc2)CC1 [BGJ398]
activity against or resistance of N550K, cell viability (BaF3/FGFR2b N550K): good activity | activity against K660E activating mutation, cell viability (BaF3 FGFR2 K660E): good activity | sensitivity or resistance of the FGFR2 mutation panel, cell viability [1]: all FGFR2 kinase mutations except the V565I from the mutation panel are sensitive

CNC(=O)c1cc(Oc2ccc(NC(=O)Nc3cc(C(C)(C)C)nn3-c3ccc4ncccc4c3)c(F)c2)ccn1 [DCC2036]
sensitivity or resistance of the FGFR2 mutation panel, cell viability [1]: most FGFR2 kinase mutations except N550K from this BaF3 resistance screen are sensitive

CCN(CC)CCCCNc1ncc2cc(-c3cc(OC)cc(OC)c3)c(NC(=O)NC(C)(C)C)nc2n1 [PD173074]
IC50 (BaF3/FGFR2b wildtype): 4.5 nM | fold difference in IC50, N550K versus wildtype (BaF3/FGFR2b N550K; BaF3/FGFR2b N550K vs wildtype): over 170 fold | activity against or resistance of N550K, cell viability (BaF3/FGFR2b N550K): greatest resistance | IC50 (BaF3/FGFR2b N550K; Mus musculus, BaF3, 72 h, read-out: IC50 value in N550K resistance cells): 776 nM | activity against or resistance of V565I gatekeeper mutation, cell viability (BaF3 FGFR2 V565I): greatest resistance | resistance conferred by E719G mutation [2]: did not induce resistance | IC50 (EI): > 4000 nM | IC50 (EJ): > 4000 nM | IC50 (EN1078D): > 4000 nM | fold increase in the IC50 [3]: ~5 fold | growth arrest and cell death (AN3CA; FGFR-mutant EC line): induced G1 growth arrest and cell death | sensitivity to FGFR inhibition (AN3CA; carries N550K FGFR2 mutation): sensitive | sensitivity to FGFR inhibition (MFE296): sensitive | growth arrest and cell death (MFE280): induced G1 growth arrest and cell death | order of sensitivity across the cell line panel [4]: least sensitive | sensitivity or resistance of the FGFR2 mutation panel, cell viability [1]: imparted resistance
